In patent US11919904B2, “Sulfonylamide compounds as CDK2 inhibitors” (Incyte Corporation, priority 2019, dated 2024):

What follows are compounds tested against CDK2/Cyclin E1 (Homo sapiens (Human), UniProt P24941) (assay: CDK2/Cyclin E1 HTRF enzyme activity assay). Settings: 1 mM ATP.
Format: biochemical
Method: CDK2/Cyclin E1 enzyme activity assays utilize full-length human CDK2 co-expressed as N-terminal GST-tagged protein with FLAG-Cyclin E1 in a baculovirus expression system (Carna Product Number 04-165). Assays are conducted in white 384-well polystyrene plates in a final reaction volume of 8 μL. CDK2/Cyclin E1 (0.25 nM) is incubated with compounds (40 nL serially diluted in DMSO) in the presence of ATP (50 μM or 1 mM) and 50 nM ULight™-labeled eIF4E-binding protein 1 (THR37/46) peptide (PerkinElmer) in assay buffer (containing 50 mM HEPES pH 7.5, 1 mM EGTA, 10 mM MgCl2, 2 mM DTT, 0.05 mg/mL BSA, and 0.01% Tween 20) for 60 minutes at room temperature. The reactions are stopped by the addition of EDTA and Europium-labeled anti-phospho-4E-BP1 antibody (PerkinElmer), for a final concentration of 15 mM and 1.5 nM, respectively. HTRF signals are read after 1 hour at room temperature on a PHERAstar FS plate reader (BMG Labtech). Data is analyzed with IDBS XLFit and GraphPad Prism 5.0 software using a three or four parameter dose response curve to determine IC50 for each compound.

Compound | IC50
CNS(=O)(=O)c1ccc(Nc2ncc3c(n2)N([C@@H]2CCC[C@]2(C)O)C(=O)C32CC2)cc1 (relative stereo) [Example 1, 4-((7′-((cis)-2-hydroxy-2-methylcyclopentyl)-6′-oxo-6′,7′-dihydrospiro[cyclopropane-1,5′-pyrrolo[2,3-d]pyrimidin]-2′-yl)amino)-N-methylbenzenesulfonamide] | ≤ 50 nM
CNS(=O)(=O)c1ccc(Nc2ncc3c(n2)N([C@@H]2CCC[C@H]2C)C(=O)C32CC2)cc1 (relative stereo) [Example 2, N-methyl-4-((7′-((trans)-2-methylcyclopentyl)-6′-oxo-6′,7′-dihydrospiro[cyclopropane-1,5′-pyrrolo[2,3-d]pyrimidin]-2′-yl)amino)benzenesulfonamide] | ≤ 50 nM
CNS(=O)(=O)c1ccc(Nc2ncc3c(n2)N([C@@H]2CCC[C@@]2(C)O)C(=O)C32CC2)c(F)c1 (relative stereo) [Example 11, 3-fluoro-4-((7′-((trans)-2-hydroxy-2-methylcyclopentyl)-6′-oxo-6′,7′-dihydrospiro[cyclopropane-1,5′-pyrrolo[2,3-d]pyrimidin]-2′-yl)amino)-N-methylbenzenesulfonamide] | ≤ 50 nM
[2H]C([2H])([2H])NS(=O)(=O)c1ccc(Nc2ncc3c(n2)N([C@@H]2CCC[C@@]2(C)O)C(=O)C32CC2)cc1 (single isomer, unassigned) [Example 9, 4-((7′-((trans)-2-hydroxy-2-methylcyclopentyl)-6′-oxo-6′,7′-dihydrospiro [cyclopropane-1,5′-pyrrolo[2,3-d]pyrimidin]-2′-yl)amino)-N-(methyl-d)benzene sulfonamide] | ≤ 50 nM
CC1CCCC1N1C(=O)C2(CC2)c2cnc(Nc3ccc(S(=O)(=O)N[C@@H]4CCCN(C)C4)cc3)nc21 (stereo partly drawn) [Example 5, 4-((7′-(2-methylcyclopentyl)-6′-oxo-6′,7′-dihydrospiro[cyclopropane-1,5′-pyrrolo[2,3-d]pyrimidin]-2′-yl)amino)-N—((R)-1-methylpiperidin-3-yl) benzenesulfonamide] | ≤ 50 nM
[2H]C([2H])([2H])NS(=O)(=O)c1ccc(Nc2ncc3c(n2)N([C@@H]2CCC[C@@H](O)C2)C(=O)C32CC2)cc1 [Example 7, 4-((7′-((1R,3R)-3-hydroxycyclohexyl)-6′-oxo-6′,7′-dihydrospiro[cyclopropane-1,5′-pyrrolo[2,3-d]pyrimidin]-2′-yl)amino)-N-(methyl-d)benzenesulfonamide] | ≤ 50 nM
CC(C)(O)CNS(=O)(=O)c1ccc(Nc2ncc3c(n2)N([C@@H]2CCC[C@@]2(C)O)C(=O)C32CC2)cc1 [Example 10, 4-((7′-(2-hydroxy-2-methylcyclopentyl)-6′-oxo-6′,7′-dihydrospiro [cyclopropane-1,5′-pyrrolo[2,3-d]pyrimidin]-2′-yl)amino)-N-(2-hydroxy-2-methylpropyl)benzenesulfonamide] | ≤ 50 nM
CN(C)CCNS(=O)(=O)c1ccc(Nc2ncc3c(n2)N(c2cc(F)ccc2Cl)C(=O)C32CC2)cc1 [Example 12, 4-((7′-(2-chloro-5-fluorophenyl)-6′-oxo-6′,7′-dihydrospiro[cyclopropane-1,5′-pyrrolo[2,3-d]pyrimidin]-2′-yl)amino)-N-(2-(dimethylamino)ethyl)benzenesulfonamide] | ≤ 50 nM
CNS(=O)(=O)c1ccc(Nc2ncc3c(n2)N(c2cc(F)ccc2C)C(=O)C32CC2)cc1 [Example 14, 4-((7′-(5-fluoro-2-methylphenyl)-6′-oxo-6′,7′-dihydrospiro[cyclopropane-1,5′-pyrrolo[2,3-d]pyrimidin]-2′-yl)amino)-N-methylbenzenesulfonamide] | ≤ 50 nM

Second part, the compound after the results:

IC50 | Compound
≤ 50 nM | CC1(NS(=O)(=O)c2ccc(Nc3ncc4c(n3)N([C@@H]3CCC[C@]3(C)O)C(=O)C43CC3)cc2)CNC1 (relative stereo) [Example 3, 4-((7′-((cis)-2-hydroxy-2-methylcyclopentyl)-6′-oxo-6′,7′-dihydrospiro[cyclopropane-1,5′-pyrrolo[2,3-d]pyrimidin]-2′-yl)amino)-N-(3-methylazetidin-3-yl)benzenesulfonamide]
≤ 50 nM | CC[C@@H](N1C(=O)C2(CC2)c2cnc(Nc3ccc(S(=O)(=O)NC)cc3)nc21)C(F)(F)F [Example 4, (R)—N-methyl-4-((6′-oxo-7′-(1,1,1-trifluorobutan-2-yl)-6′,7′-dihydrospiro[cyclopropane-1,5′-pyrrolo[2,3-d]pyrimidin]-2′-yl)amino)benzenesulfonamide]
≤ 50 nM | CNS(=O)(=O)c1ccc(Nc2ncc3c(n2)N([C@@H]2CCC[C@@H](O)C2)C(=O)C32CC2)cc1 [Example 6, 4-((7′-((1R,3R)-3-hydroxycyclohexyl)-6′-oxo-6′,7′-dihydrospiro [cyclopropane-1,5′-pyrrolo[2,3-d]pyrimidin]-2′-yl)amino)-N-methylbenzene sulfonamide]
≤ 50 nM | [2H]C([2H])([2H])NS(=O)(=O)c1ccc(Nc2ncc3c(n2)N([C@@H](C)C2CC2)C(=O)C32CC2)cc1 [Example 8, (S)-4-((7′-(1-cyclopropylethyl)-6′-oxo-6′,7′-dihydrospiro[cyclopropane-1,5′-pyrrolo[2,3-d]pyrimidin]-2′-yl)amino)-N-(methyl-d)benzenesulfonamide]
≤ 50 nM | CNS(=O)(=O)c1ccc(Nc2ncc3c(n2)N(c2cc4c(cc2Cl)CNCC4)C(=O)C32CC2)cc1 [Example 13, 4-((7′-(7-chloro-1,2,3,4-tetrahydroisoquinolin-6-yl)-6′-oxo-6′,7′-dihydrospiro[cyclopropane-1,5′-pyrrolo[2,3-d]pyrimidin]-2′-yl)amino)-N-methylbenzenesulfonamide]
≤ 50 nM | CNS(=O)(=O)c1ccc(Nc2ncc3c(n2)N(c2cc(F)ccc2Cl)C(=O)C32CC2)cc1 [Example 15, 4-((7′-(2-chloro-5-fluorophenyl)-6′-oxo-6′,7′-dihydrospiro[cyclopropane-1,5′-pyrrolo[2,3-d]pyrimidin]-2′-yl)amino)-N-methylbenzenesulfonamide]

What follows are compounds tested on Rb phosphorylated on serine 780 in CCNE1 amplified COV318 cells (assay: CDK2 pRb (S780) HTRF cellular assay). Settings: Homo sapiens, FIG. 10B.
Format: cell-based
Method: CDK2 pRb ([…]) HTRF cellular assay enables the quantitative detection of Rb phosphorylated on […] in CCNE1 amplified COV318 cells. The assay comprised two antibodies: Europium cryptate labeled anti-Phospho-Rb […] antibody (donor) and d2 labeled anti-Rb antibody (acceptor). […] The final concentrations of compounds start from 3 μM. […] After 2 h of incubation at room temperature, HTRF signals were measured on the PHERAstar microplate reader (BMG Labtech), using 340 nm as excitation wavelength, a 620 nm filter for the Europium donor fluorescence, and a 665-nm filter for the acceptor fluorescence detection. HTRF signals were calculated as the HTRF ratio (ratio of fluorescence measured at 665 nm and 620 nm)×10000.

IC50 | Compound
37 nM | C[C@@]1(O)CCC[C@H]1n1c(=O)ccc2cnc(NC3CCN(S(C)(=O)=O)CC3)nc21 [Compound A, 8-((1R,2R)-2-hydroxy-2-methylcyclopentyl)-2-((1-(methylsulfonyl)piperidin-4-yl)amino)pyrido[2,3-d]pyrimidin-7(8H)-one]

Each compound was assayed on CCNE1 amplified COV318 cells (assay: Cell cycle analysis by FACS in COV318 cells with control or p16 siRNA). Settings: control siRNA-treated cells; 100 nM; sixteen hours.
Format: cell-based, human
Method: To confirm the role of p16 in CDK2-sensitivity of CCNE-amplified cells, COV318 cells were treated with control or p16-specifict siRNA.
Bulk DNA was stained with DAPI. Compound-treated and DMSO treated control cells were acquired with CytoFlex (Beckman Coulter) and were analyzed using the FlowJo software. For cell cycle analysis of cells with siRNA knockdown, 72 hours after siRNA transfection, cells exposed to 10 μM EdU for 3 hours before detection of Click-iT Alexa Fluor® 647 azide kit.

Compound | percentage of S phase cells
C[C@@]1(O)CCC[C@H]1n1c(=O)ccc2cnc(NC3CCN(S(C)(=O)=O)CC3)nc21 [Compound A, 8-((1R,2R)-2-hydroxy-2-methylcyclopentyl)-2-((1-(methylsulfonyl)piperidin-4-yl)amino)pyrido[2,3-d]pyrimidin-7(8H)-one] | significantly decreased

Same assay, conditions: p16 knocked down cells; 100 nM; sixteen hours; compared to DMSO control

Compound | percentage of S phase cells
C[C@@]1(O)CCC[C@H]1n1c(=O)ccc2cnc(NC3CCN(S(C)(=O)=O)CC3)nc21 [Compound A, 8-((1R,2R)-2-hydroxy-2-methylcyclopentyl)-2-((1-(methylsulfonyl)piperidin-4-yl)amino)pyrido[2,3-d]pyrimidin-7(8H)-one] | not significantly decreased
